Experimental data: paper PMC6798786 (Brain Communications, 2019)
“Also recorded” adds a separate entry of the source. Read-outs that look alike come from different tables or passages of the source.

Experiments:
scn1lab mutant zebrafish [1] = experiment: locomotion (mean swim velocity) seizure-like behaviour assay in scn1lab mutant zebrafish larvae; format: in vivo, Danio rerio; conditions: for effect on seizure-like swim behaviour, commercially available compounds: three concentrations; for effect on seizure-like swim behaviour, commercially available compounds / effect on seizure-like swim behaviour, retest of independently synthesized compound: 30 and 90 min exposure; for effect on seizure-like swim behaviour, initial library screen: 100 µM or 250 µM, UCSF-synthesized compound; for effect on seizure-like swim behaviour, retest of independently synthesized compound: 10, 50, 100 and 250 µM; for change in vivo at 100 µM / change in vivo at 250 µM: Danio rerio
Method: For locomotion studies, zebrafish larvae (5 days post-fertilization) were placed into a single well of a clear flat-bottomed 96-well microplate containing embryo media. Sex determination is not possible at this stage of development. All drug screening experiments were conducted in an unbiased manner by investigators blinded to the test compounds and all files coded for post hoc analysis. The 96-well plate containing larvae was then placed inside a DanioVision box where they were allowed to acclimate (20 min; room temperature). EthoVision XT software (DanioVision, Noldus Information Technology) was used to obtain locomotion plots (10 min in duration). Seizure scoring was performed, as described ([Baraban et al., 2005]). All locomotion plots were analysed for distance travelled (in millimetres) and mean velocity (in millimetres per second). After 90 min of drug exposure larvae were examined for toxic side-effects. Compounds that decreased or stopped the larva heartbeat, or reduced or eliminated the escape response when touched, were considered toxic.
For behaviour analysis, the threshold for a change in mean swim velocity ≥40% is considered significant (>1.5× SD of 250 control treated scn1lab). Unless otherwise indicated, all data in this manuscript are presented as the mean ± standard error of the mean. […] Statistically significant differences are indicated with asterisks (*P < 0.05; **P < 0.01; ***P < 0.001). […]

human 5-HT2CR = target: T1, human 5-HT2CR (Homo sapiens, UniProt P28335); conditions: commercially available compounds known to bind 5-HT2BR; ref Roth et al., 2000; read-out: 5-HT2CR (nM), Table S3; cited from earlier work
T1 sequence (P28335 33-458): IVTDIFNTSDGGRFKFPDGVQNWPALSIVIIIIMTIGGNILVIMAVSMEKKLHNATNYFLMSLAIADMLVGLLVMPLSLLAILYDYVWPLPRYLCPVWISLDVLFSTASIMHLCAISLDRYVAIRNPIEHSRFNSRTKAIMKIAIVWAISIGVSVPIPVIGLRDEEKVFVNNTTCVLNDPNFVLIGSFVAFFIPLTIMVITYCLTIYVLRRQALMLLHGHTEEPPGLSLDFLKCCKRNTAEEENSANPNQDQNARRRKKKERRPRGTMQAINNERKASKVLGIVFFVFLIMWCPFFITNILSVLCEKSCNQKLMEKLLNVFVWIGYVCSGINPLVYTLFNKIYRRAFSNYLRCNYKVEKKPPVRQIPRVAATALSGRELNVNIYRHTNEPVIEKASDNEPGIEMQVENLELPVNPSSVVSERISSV

scn1lab mutant zebrafish [2] = experiment: local field potential (LFP) electrophysiology, electrographic seizure events; format: in vivo, Danio rerio; conditions: for effect on electrographic seizure activity (LFP): 100 µM, 10 min recording epoch
Method: Using a glass micro-electrode positioned under an upright microscope, local field potential (LFP) recordings were obtained from forebrain or optic tectum structures, as described ([Baraban et al., 2005]). Agarose-embedded LFP recording sessions (10 min in duration) were obtained using Axoclamp software (Molecular Devices; Sunnyvale, CA, USA) and sampled at 1 kHz. Epileptiform events were identified post hoc. These were classified as multi-spike or poly-spike upward or downward membrane deflections greater than 3× baseline noise level and 150–250 ms in duration (interictal-like) or greater than 5× baseline noise, multi-spike and >500 ms in duration (ictal-like); both events were counted using threshold detection settings in Clampfit (Molecular Devices; Sunnyvale, CA, USA). Agarose-embedded larvae were continuously monitored for blood flow and heart rate using an Axiocam digital camera at video frame rate.
Monitoring electrographic brain activity to confirm seizure suppression is an essential assay to eliminate false positives from behavioural testing ([Griffin et al., 2018]). By placing a micro-electrode into a visually identified brain region of an agar-immobilized zebrafish larval, stable LFP recordings can be monitored for several hours ([Baraban, 2013]). At 5 days post-fertilization, LFP recordings of scn1Lab zebrafish larvae show an average of 250 abnormal electrographic seizure events during a 10 min recording epoch.

human 5-HT2AR = human 5-HT2AR (Homo sapiens, UniProt P28223); conditions: read-out: 5-HT2AR (nM), Table S3, cited from earlier work
human 5-HT2AR, sequence (P28223 whole entry): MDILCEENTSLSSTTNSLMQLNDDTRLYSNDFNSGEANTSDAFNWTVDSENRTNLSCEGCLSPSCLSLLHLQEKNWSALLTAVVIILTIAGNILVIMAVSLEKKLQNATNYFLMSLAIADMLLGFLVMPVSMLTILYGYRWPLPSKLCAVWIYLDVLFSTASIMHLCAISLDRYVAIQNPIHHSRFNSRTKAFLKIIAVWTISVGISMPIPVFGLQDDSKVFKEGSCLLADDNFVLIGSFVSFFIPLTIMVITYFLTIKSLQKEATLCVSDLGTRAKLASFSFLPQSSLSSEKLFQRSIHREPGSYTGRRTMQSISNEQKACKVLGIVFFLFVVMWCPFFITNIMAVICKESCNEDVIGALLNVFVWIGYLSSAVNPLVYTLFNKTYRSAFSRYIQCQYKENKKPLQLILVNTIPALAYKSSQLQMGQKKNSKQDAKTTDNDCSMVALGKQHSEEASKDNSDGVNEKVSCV

human 5-HT2BR [3] = target: T2, human 5-HT2BR (Homo sapiens, UniProt P41595); conditions: commercially available compounds known to bind 5-HT2BR; ref Roth et al., 2000; read-out: 5-HT2BR (nM), Table S3; cited from earlier work
T2 sequence (P41595 whole entry): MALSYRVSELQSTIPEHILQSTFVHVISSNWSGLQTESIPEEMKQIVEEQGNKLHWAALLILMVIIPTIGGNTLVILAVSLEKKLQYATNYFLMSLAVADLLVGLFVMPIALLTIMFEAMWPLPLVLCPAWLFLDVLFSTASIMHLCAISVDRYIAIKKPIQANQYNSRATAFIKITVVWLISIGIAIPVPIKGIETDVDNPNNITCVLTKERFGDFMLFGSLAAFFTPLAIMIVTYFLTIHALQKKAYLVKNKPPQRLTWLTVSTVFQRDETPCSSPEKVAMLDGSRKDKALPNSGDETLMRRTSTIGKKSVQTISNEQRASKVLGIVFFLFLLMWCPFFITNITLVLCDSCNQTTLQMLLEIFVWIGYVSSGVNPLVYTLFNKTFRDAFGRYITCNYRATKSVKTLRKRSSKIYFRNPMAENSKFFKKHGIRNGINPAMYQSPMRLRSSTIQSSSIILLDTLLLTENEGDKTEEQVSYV

human 5-HT2BR [4] = target: T2, human 5-HT2BR; experiment: radioligand binding (NIMH PDSP)
Method: (§1) All in vitro binding assay and Ki data studies were performed by the US National Institute of Mental Health Psychoactive Drug Screening Program (NIMH PDSP). For these studies, drugs were screened against recombinant, stably expressed human 5-HT2AR, 5-HT2BR, 5-HT2CR and H1, as described at https://pdspdb.unc.edu/pdspWeb/ ([Besnard et al., 2012]).

human H1 = human H1 (Homo sapiens, UniProt P35367); experiment: radioligand binding (NIMH PDSP)
human H1, sequence (P35367 whole entry): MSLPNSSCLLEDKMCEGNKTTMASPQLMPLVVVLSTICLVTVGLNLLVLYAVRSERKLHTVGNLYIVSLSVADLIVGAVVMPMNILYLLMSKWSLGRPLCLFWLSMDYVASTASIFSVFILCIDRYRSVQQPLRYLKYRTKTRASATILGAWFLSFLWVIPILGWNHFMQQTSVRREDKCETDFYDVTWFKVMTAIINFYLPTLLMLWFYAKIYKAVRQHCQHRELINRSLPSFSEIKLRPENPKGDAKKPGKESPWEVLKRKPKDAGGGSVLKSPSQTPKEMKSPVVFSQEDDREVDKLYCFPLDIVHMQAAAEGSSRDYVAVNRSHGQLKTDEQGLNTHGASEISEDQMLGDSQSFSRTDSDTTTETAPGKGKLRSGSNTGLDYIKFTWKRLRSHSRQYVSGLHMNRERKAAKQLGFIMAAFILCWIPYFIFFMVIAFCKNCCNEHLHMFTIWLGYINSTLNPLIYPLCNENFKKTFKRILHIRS
Method: as §1

[5] = read-out: % change in velocity, individual larva 1 (heat map)
[6] = read-out: % change in velocity, individual larva 2 (heat map)
[7] = read-out: % change in velocity, individual larva 3 (heat map)
[8] = read-out: % change in velocity, individual larva 4 (heat map)
[9] = read-out: % change in velocity, individual larva 5 (heat map)
[10] = read-out: % change in velocity, individual larva 6 (heat map)
[11] = read-out: mean velocity change from six fish, Trial 1
[12] = read-out: mean velocity change from six fish, Trial 2

| Compound | effect on seizure-like swim behaviour, commercially available compounds (scn1lab mutant zebrafish [1]) | effect on seizure-like swim behaviour, initial library screen (scn1lab mutant zebrafish [1]) | effect on seizure-like swim behaviour, retest of independently synthesized compound (scn1lab mutant zebrafish [1]) | change in vivo at 100 µM (scn1lab mutant zebrafish [1]; [5]) [%] | change in vivo at 250 µM (scn1lab mutant zebrafish [1]; [5]) [%] | change in vivo at 100 µM (scn1lab mutant zebrafish [1]; [6]) [%] | change in vivo at 250 µM (scn1lab mutant zebrafish [1]; [6]) [%] | change in vivo at 100 µM (scn1lab mutant zebrafish [1]; [7]) [%] | change in vivo at 250 µM (scn1lab mutant zebrafish [1]; [7]) [%] | change in vivo at 100 µM (scn1lab mutant zebrafish [1]; [8]) [%] | change in vivo at 250 µM (scn1lab mutant zebrafish [1]; [8]) [%] | change in vivo at 100 µM (scn1lab mutant zebrafish [1]; [9]) [%] | change in vivo at 250 µM (scn1lab mutant zebrafish [1]; [9]) [%] | change in vivo at 100 µM (scn1lab mutant zebrafish [1]; [10]) [%] | change in vivo at 250 µM (scn1lab mutant zebrafish [1]; [10]) [%] | change in vivo at 100 µM (scn1lab mutant zebrafish [1]; [11]) [%] | change in vivo at 250 µM (scn1lab mutant zebrafish [1]; [11]) [%] | change in vivo at 100 µM (scn1lab mutant zebrafish [1]; [12]) [%] | change in vivo at 250 µM (scn1lab mutant zebrafish [1]; [12]) [%] | effect on electrographic seizure activity (LFP) (scn1lab mutant zebrafish [2]) | further results |
| --- | --- | --- | --- | --- | --- | --- | --- | --- | --- | --- | --- | --- | --- | --- | --- | --- | --- | --- | --- | --- | --- |
| CC(N)Cc1cccc(C(F)(F)F)c1.Cl (single isomer, unassigned; (+)) [norfenfluramine, (+)-Norfenfluramine hydrochloride, reference compound] | suppressed convulsive swim behaviours in a concentration-dependent manner; also recorded: restore the swimming behaviour or scn1lab mutant larvae to wild-type levels |  |  |  |  |  |  |  |  |  |  |  |  |  |  |  |  |  |  |  | Ki (human 5-HT2CR): 306 nM; larvae with reduced spontaneous seizure events (LFP) (scn1lab mutant zebrafish [2]; n = 8): 5 out of 8; Ki (human 5-HT2AR): 194 nM; Ki (human 5-HT2BR [3]): 18 nM |
| Clc1cccc(COc2cncc(N3CCNCC3)n2)c1 [CP-809,101] | biphasic response |  |  |  |  |  |  |  |  |  |  |  |  |  |  |  |  |  |  |  | Ki (human 5-HT2CR): 64 nM; Ki (human 5-HT2AR; commercially available compounds known to bind 5-HT2BR, ref Roth et al., 2000): 1.6 nM; Ki (human 5-HT2BR [3]): 6 nM |
| c1ccc2c(c1)nc(CN1CCCC1)n2CC1CCCCC1 [Compound 4] |  | effective in suppressing | reduced the high-velocity seizure-like swim behaviour | -85.7 | -93.5 | -30.6 | -100 | -85.6 | -100 | -68.3 | -67.4 | -79.4 | -83.7 | 146 | -100 | -41.7 | -93.4 | -44.8 | -100 | significant suppression of electrographic seizure activity | Ki (human 5-HT2BR [4]): 612 nM; Ki (human H1): 153 nM |
| FC(F)(F)c1ccc(Cn2c(CN3CCCC3)nc3ccccc32)cc1 [Compound 6] |  | effective in suppressing | reduced the high-velocity seizure-like swim behaviour | -34.5 | -100 | 38.1 | -91.9 | -51.3 | -100 | 10 | -100 | -75.4 | -79.3 | -79.2 | -92.7 | -40 | -94.7 | -76.2 | -90.5 | significant suppression of electrographic seizure activity | Ki (human 5-HT2BR [4]; read-out: Ki 5-HT2BR): 285 nM; Ki (human H1; read-out: Ki H1): 16 nM |
| c1ccc2c(c1)nc(CN1CCCC1)n2CC1CCCC1 [Compound 20] |  | effective in suppressing | reduced the high-velocity seizure-like swim behaviour | 17.3 | -62.7 | -4.1 | -80.4 | -27.1 | -65.9 | -14.1 | -100 | -25.2 | -60.9 | -48.1 | -9.7 | -15.6 | -66.1 | -15.6 | -66.1 | significant suppression of electrographic seizure activity | Ki (human 5-HT2BR [4]; read-out: Ki 5-HT2BR): 772 nM; Ki (human H1; read-out: Ki H1): 161 nM |
